Experimental data reported in patent US20180256914A1, “COMPOSITIONS AND METHODS FOR THE TREATMENT OF MUCOSITIS ASSOCIATED WITH TREATMENT-INDUCED NEUTROPENIA” (KLOX TECHNOLOGIES INC., priority 2015, published 2018).

How the values were obtained:
[1] = test system: P. aeruginosa; type: cell-based, Pseudomonas aeruginosa; conditions: Trolox at concentrations above 2 mM; data not shown
[2] = Neutralisation by Trolox of ROS produced by gel containing 12% urea peroxide; conditions: 2 mM Trolox; FIG. 2

## Cc1c(C)c2c(c(C)c1O)CCC(C)(C(=O)O)O2 (centres unmarked) [Trolox]
[1]
  cytotoxicity to P. aeruginosa: not to be cytotoxic
[2]
  neutralization of ROS produced by the gel containing 12% urea peroxide: neutralize the ROS
